Tests used:
[1] = tested on: DSS-Induced inflammatory Bowel Disease Models in Mice; experiment: DSS-induced inflammatory bowel disease model in mice (Biological Example 5, 1.3% DSS); type: in vivo, C57BL/6 mice; details: 30 mg/Kg i.g. Q.D, 1.3% DSS days 0-5; for inhibition in vivo at 30 mg/kg: Mus musculus, po, read-out: Inhibitory Rate of Colonic Reduction
Description: 40 healthy female C57BL/6 mice having weight of 16-19 g were randomly divided into 4 groups in accordance with weight. There were 10 mice in each group (see Table 6 below). The first day of the experiment was recorded as Day 0. The administration regimen and induction regimen were detailed in Table 6. The change in weight of experimental animals was recorded every day. […] Samples of animal colonic tissues were obtained to measure the length. One-way ANOVA analysis of mice weights was performed by SPSS22. Statistical analyses between groups were performed. Mann-Whitney U non-parametric test was performed on the length of colon.
The experimental method used in the present biological example is identical to those in Biological Example 3.
One-way ANOVA analysis of mice body weights and colonic weights per length was performed by SPSS22. Statistical analyses between groups were performed.
Calculation Formula of Inhibitory Rate of Colonic Reduction: (Length of Colon in Administration Group−Length of Colon in Model Group)/(Length of Colon in Blank Group−Length of Colon in Model Group)

ICR mice = experiment: Acute toxicity experiment of single oral administration in mice; type: in vivo; details: 1000 mg/Kg single oral dose
Method in brief: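 Fasted ICR mice (19–21 g, 3 male and 3 female per group) received a single oral dose of 1000 mg/Kg, given first to one of each sex, then to the remaining four. Acute signs were scored over the first 15 min, then state, deaths and daily body weight over 7 days.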

Compound	Length (cm, Mean ± SD) of colon [1]	inhibition in vivo at 30 mg/kg [1]	Daily Body Weight of Tested Female Mice (Mean ± SD) (ICR mice; Day 1)	Daily Body Weight of Tested Male Mice (Mean ± SD) (ICR mice; Day 1)	Daily Body Weight of Tested Female Mice (Mean ± SD) (ICR mice; Day 2)	Daily Body Weight of Tested Male Mice (Mean ± SD) (ICR mice; Day 2)	Daily Body Weight of Tested Female Mice (Mean ± SD) (ICR mice; Day 3)	Daily Body Weight of Tested Male Mice (Mean ± SD) (ICR mice; Day 3)	Daily Body Weight of Tested Female Mice (Mean ± SD) (ICR mice; Day 4)	Daily Body Weight of Tested Male Mice (Mean ± SD) (ICR mice; Day 4)	Daily Body Weight of Tested Female Mice (Mean ± SD) (ICR mice; Day 5)	Daily Body Weight of Tested Male Mice (Mean ± SD) (ICR mice; Day 5)	Daily Body Weight of Tested Female Mice (Mean ± SD) (ICR mice; Day 6)	Daily Body Weight of Tested Male Mice (Mean ± SD) (ICR mice; Day 6)	Daily Body Weight of Tested Female Mice (Mean ± SD) (ICR mice; Day 7)	Daily Body Weight of Tested Male Mice (Mean ± SD) (ICR mice; Day 7)	Summary of toxic response of tested animals in 7 Days (ICR mice; Female)	Summary of toxic response of tested animals in 7 Days (ICR mice; Male)
COCCCN1C(=O)CCC(N2C(=O)c3cccc(F)c3C2=O)C1=O (stereo not shown) [Example 17, 4-fluoro-2-(1-(3-methoxypropyl)-2,6-dioxopiperidin-3-yl)isoindolin-1,3-dione]	7.0 ± 0.4 cm	109%	18.6 ± 1.0 g	19.0 ± 0.7 g	21.9 ± 0.4 g	24.0 ± 0.7 g	22.7 ± 0.4 g	24.6 ± 0.8 g	22.7 ± 0.4 g	24.6 ± 0.8 g	23.0 ± 0.4 g	26.1 ± 0.7 g	23.1 ± 1.0 g	28.1 ± 0.6 g	22.7 ± 1.2 g	29.3 ± 1.0 g	Motor dysfunction in one animal was observed 10 minutes after	Motor dysfunction in two animals was observed 30 minutes after
CS(=O)(=O)CCN1C(=O)CCC(N2C(=O)c3cccc(N)c3C2=O)C1=O (stereo not shown) [Example 13, 4-amino-2-(1-(2-methylsulfonylethyl)-2,6-dioxopiperidin-3-yl)isoindolin-1,3-dione]	6.9 ± 0.4 cm	100%	18.8 ± 1.1 g	19.6 ± 0.7 g	21.3 ± 0.3 g	23.1 ± 0.6 g	21.8 ± 0.4 g	24.4 ± 0.9 g	21.8 ± 0.4 g	24.4 ± 0.9 g	23.0 ± 0.5 g	26.5 ± 0.5 g	23.2 ± 0.9 g	28.3 ± 1.3 g	23.6 ± 0.9 g	28.4 ± 0.8 g	Abnormality was not observed in 7 days of the test	Abnormality was not observed in 7 days of the test
COCCN1C(=O)CCC(N2C(=O)c3cccc(O)c3C2=O)C1=O (stereo not shown) [Example 23, 4-hydroxy-2-(1-(2-methoxyethyl)-2,6-dioxopiperidin-3-yl)isoindolin-1,3-dione]	6.9 ± 0.5 cm	100%	19.1 ± 0.6 g	19.4 ± 0.8 g	22.4 ± 0.4 g	24.6 ± 1.2 g	23.0 ± 0.1 g	24.5 ± 0.6 g	23.0 ± 0.1 g	24.5 ± 0.6 g	24.6 ± 0.4 g	25.4 ± 1.2 g	24.8 ± 0.7 g	28.1 ± 0.8 g	24.6 ± 0.4 g	29.0 ± 0.8 g	Abnormality was not observed in 7 days of the test	Abnormality was not observed in 7 days of the test
CCOCCN1C(=O)CCC(N2C(=O)c3cccc(F)c3C2=O)C1=O (stereo not shown) [Example 20, 4-fluoro-2-(1-(2-ethoxyethyl)-2,6-dioxopiperidin-3-yl)isoindolin-1,3-dione]	6.9 ± 0.6 cm	100%	18.7 ± 0.4 g	18.8 ± 1.0 g	21.6 ± 1.0 g	24.0 ± 1.1 g	22.1 ± 1.0 g	25.3 ± 1.2 g	22.1 ± 1.0 g	25.3 ± 1.2 g	23.0 ± 1.4 g	26.7 ± 1.2 g	23.3 ± 0.2 g	29.0 ± 1.1 g	23.7 ± 0.8 g	29.3 ± 0.7 g	Decrease of activity was observed in two animals in 10 minutes	Decrease of activity was observed in one animal 11 minutes after
COCCN1C(=O)CCC(N2C(=O)c3cccc(C)c3C2=O)C1=O (stereo not shown) [Example 24, 4-methyl-2-(1-(2-methoxyethyl)-2,6-dioxopiperidin-3-yl)-isoindolin-1,3-dione]	6.7 ± 0.6 cm	81.8%	18.4 ± 0.7 g	17.7 ± 0.2 g	22.4 ± 1.0 g	22.3 ± 0.7 g	23.4 ± 1.0 g	24.5 ± 1.0 g	23.6 ± 0.9 g	25.2 ± 1.0 g	24.3 ± 0.6 g	27.2 ± 1.3 g	24.7 ± 0.6 g	28.1 ± 2.0 g	24.8 ± 1.5 g	28.9 ± 1.9 g	–	–
C[S+]([O-])CCN1C(=O)CCC(N2C(=O)c3cccc(N)c3C2=O)C1=O (stereo not shown) [Example 12, 4-amino-2-(1-(2-methylsulfinylethyl)-2,6-dioxopiperidin-3-yl)isoindolin-1,3-dione]	7.0 ± 0.5 cm	109%	18.7 ± 0.7 g	18.5 ± 0.2 g	21.8 ± 0.6 g	24.3 ± 0.6 g	22.6 ± 0.1 g	24.9 ± 0.1 g	22.6 ± 0.0 g	24.9 ± 0.1 g	23.7 ± 0.6 g	26.1 ± 0.7 g	25.3 ± 1.0 g	27.8 ± 0.7 g	25.7 ± 1.6 g	28.5 ± 0.7 g	Abnormality was not observed in 7 days of the test	Abnormality was not observed in 7 days of the test
